Experimental data as given in ChEMBL document CHEMBL1122316, “Different receptor sites mediate opioid agonism and antagonism” (J Med Chem, 1983).

Key:
[1] = target: Opioid receptors; mu/kappa/delta (Homo sapiens, UniProt P41145+P41143+P35372); test: Evaluated the ability to protect against the irreversible antagonism of morphines effects by beta-FNA in guinea pig ileal longitudinal muscle.; type: functional, tissue-based, Cavia porcellus, Muscle tissue
[2] = Compound was tested for ability to protect against the irreversible antagonism of morphine''s effects by beta-FNA in guinea pig ileum at 1 uM concentration; type: functional
[3] = Compound was tested for ability to protect against the irreversible antagonism of morphine''s effects by beta-FNA in guinea pig ileum at 10 nM concentration, ratio is IC50 after treatment/control IC50; type: functional
[4] = Compound was evaluated for equilibrium constant, Ke; type: ADME
[5] = Compound was tested for ability to protect against the irreversible antagonism of morphine''s effects by beta-FNA in guinea pig ileum at 200 nM concentration; type: functional
[6] = Compound was tested for ability to protect against the irreversible antagonism of morphine''s effects by beta-FNA in guinea pig ileum at 20 nM concentration; type: functional
[7] = Compound was tested for ability to protect against the irreversible antagonism of morphine''s effects by beta-FNA in guinea pig ileum at 2 nM concentration; type: functional
[8] = Effect of protecte expressed as morphine IC50 ratio (IC50 after treatment/control IC50) at 200 nM concentration; type: functional

SMILES | IC50 [1] | Ratio [2] | Ratio [3] | Ke [4] | Ratio [5] | Ratio [6] | Ratio [7] | Ratio [8]
COC(=O)/C=C/C(=O)N[C@@H]1CC[C@@]2(O)C3Cc4ccc(O)c5c4C2(CCN3C)C1O5 (stereo partly specified) | 22 nM | 5.2 | – | – | – | – | – | –
CCOc1ccc2c(c1)C1(C)CCN(CC3CC3)C(C2=O)C1C (stereo unspecified) [ETHYLKETAZOCINE] | 0.6 nM | – | 4.6 | – | – | – | – | –
C=CCN1CC[C@]23c4c5ccc(O)c4O[C@H]2[C@@H](O)C=C[C@H]3[C@H]1C5 [NALORPHINE] | 28 nM | 1.4 | – | 4.5 | 1.9 | – | – | –
C=CCN1CC[C@]23c4c5ccc(O)c4O[C@H]2C(=O)CC[C@@]3(O)[C@H]1C5 [NALOXONE] | – | – | – | 1.2 | – | 1.9 | 3.4 | 1.1
O=C1CC[C@@]2(O)[C@H]3Cc4ccc(O)c5c4[C@@]2(CCN3CC2CC2)[C@H]1O5 [NALTREXONE] | – | – | – | 0.38 | – | 1 | 2.4 | 1
